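Dose response: 5 concentrations. Exposure: 48 h. Format: 96-well plates. Endpoint: linear interpolation; highest concentration if not reached. At the GI50, growth is halved.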 Calls of active or inactive are those of the source. No stated cut-off is given here; in the data, active = GI50 up to about 1.1 µM and inactive = higher.
What was measured:
Test in all cases: growth of human tumour cells (NCI), 48 h
[1] = test system: SW-620
[2] = test system: SK-OV-3
[3] = test system: SR
[4] = test system: SN12C
[5] = test system: UACC-257
[6] = test system: NCI-H460
[7] = test system: TK-10
[8] = test system: SNB-19
[9] = test system: EKVX
[10] = test system: SF-268
[11] = test system: SK-MEL-2
[12] = test system: SK-MEL-5
[13] = test system: ACHN
[14] = test system: HL-60
[15] = test system: RPMI-8226
[16] = test system: CCRF-CEM
[17] = test system: HCC 2998
[18] = test system: RXF 393

| Structure (SMILES) | GI50 [1] | GI50 [2] | GI50 [3] | GI50 [4] | GI50 [5] | GI50 [6] | GI50 [7] | GI50 [8] | GI50 [9] | GI50 [10] | GI50 [11] | GI50 [12] | GI50 [13] | GI50 [14] | GI50 [15] | GI50 [16] | GI50 [17] | GI50 [18] |
| --- | --- | --- | --- | --- | --- | --- | --- | --- | --- | --- | --- | --- | --- | --- | --- | --- | --- | --- |
| O=C1/C=C(/c2ccc(O)cc2)[C@@H](O)Cc2ccc(O)cc2O1 | > 100 µM (inactive) | 35.7 µM (inactive) | 56.1 µM (inactive) | 85.9 µM (inactive) | > 100 µM (inactive) | 62.4 µM (inactive) | > 100 µM (inactive) | 93.5 µM (inactive) | > 100 µM (inactive) | 45.1 µM (inactive) | > 100 µM (inactive) | > 100 µM (inactive) | 92.7 µM (inactive) | – | – | – | – | – |
| C=Nc1ccc([N+](=O)[O-])cc1 | > 63.8 µM (inactive) | > 100 µM (inactive) | > 41.5 µM (inactive) | > 65.3 µM (inactive) | > 100 µM (inactive) | > 59.4 µM (inactive) | > 100 µM (inactive) | > 100 µM (inactive) | > 100 µM (inactive) | > 100 µM (inactive) | > 100 µM (inactive) | > 100 µM (inactive) | > 100 µM (inactive) | > 62.7 µM (inactive) | > 31.6 µM (inactive) | > 63.1 µM (inactive) | > 100 µM (inactive) | – |
| Cc1cc(N(CCC#N)CCC#N)ccc1/C=C(\NC(=O)/C=C/c1ccccc1)NC(=O)Nc1ccc(Cl)cc1 | > 100 µM (inactive) | – | – | > 100 µM (inactive) | > 100 µM (inactive) | > 100 µM (inactive) | – | 48.4 µM (inactive) | 47.9 µM (inactive) | 62.2 µM (inactive) | > 100 µM (inactive) | 3.83 µM (inactive) | 7.28 µM (inactive) | 37.5 µM (inactive) | > 100 µM (inactive) | > 100 µM (inactive) | 58.7 µM (inactive) | 15.7 µM (inactive) |
| N/N=C1\C(=O)N(C2CCCCCC2)C(=O)C1C(=O)NC1CCCCCC1 (centres undefined) | 28.3 µM (inactive) | – | – | 27.9 µM (inactive) | 55.3 µM (inactive) | 42.7 µM (inactive) | > 10 µM (inactive) | 35.6 µM (inactive) | 32.7 µM (inactive) | 36.9 µM (inactive) | 19.1 µM (inactive) | 17.1 µM (inactive) | 42.2 µM (inactive) | 19.8 µM (inactive) | – | 25.4 µM (inactive) | 25.6 µM (inactive) | 40 µM (inactive) |
| CCC1=CCC(P(=O)(c2ccccc2)c2ccccc2)CC1C (centres undefined) | 48.5 µM (inactive) | 62.8 µM (inactive) | – | 44.7 µM (inactive) | 74.5 µM (inactive) | 39.1 µM (inactive) | 32.6 µM (inactive) | 27.5 µM (inactive) | 35.3 µM (inactive) | 35.2 µM (inactive) | 29.7 µM (inactive) | 28 µM (inactive) | – | 22.2 µM (inactive) | 22.9 µM (inactive) | 31.3 µM (inactive) | – | 42.2 µM (inactive) |
| CCCN(CCC)c1c([N+](=O)[O-])cc(C(=O)N(C)C)cc1[N+](=O)[O-] | – | > 100 µM (inactive) | – | > 100 µM (inactive) | 35.4 µM (inactive) | 47.3 µM (inactive) | > 100 µM (inactive) | – | 37.8 µM (inactive) | > 100 µM (inactive) | > 100 µM (inactive) | 5.07 µM (inactive) | 16.4 µM (inactive) | 15.6 µM (inactive) | 52.2 µM (inactive) | 28.4 µM (inactive) | > 100 µM (inactive) | – |
| C[C@]12CCC(=O)C(O)=C1CC[C@@H]1C2CC[C@]2(C)NC(=O)CCC12 (some centres undefined) | > 100 µM (inactive) | > 100 µM (inactive) | – | > 100 µM (inactive) | > 100 µM (inactive) | > 100 µM (inactive) | > 100 µM (inactive) | > 100 µM (inactive) | > 100 µM (inactive) | > 100 µM (inactive) | > 100 µM (inactive) | > 100 µM (inactive) | > 100 µM (inactive) | > 100 µM (inactive) | > 100 µM (inactive) | > 100 µM (inactive) | – | > 100 µM (inactive) |
| CCNC(=O)O/N=C1\CCC2[C@@H]3CC=C4C[C@@H](OC(=O)NCC)CC[C@]4(C)C3CC[C@]12C (some centres undefined) | 3.61 µM (inactive) | 7.82 µM (inactive) | – | 2.65 µM (inactive) | 0.422 µM (active) | 1.83 µM (inactive) | 1.77 µM (inactive) | 0.495 µM (active) | 0.735 µM (active) | 2.94 µM (inactive) | 2.13 µM (inactive) | 0.807 µM (active) | 1.38 µM (inactive) | – | 1.46 µM (inactive) | – | 4.68 µM (inactive) | 3.42 µM (inactive) |
| CCOC(=O)C(C)(c1cn(C)c2ccccc12)c1cn(C)c2ccccc12 | > 100 µM (inactive) | > 100 µM (inactive) | – | – | > 100 µM (inactive) | > 100 µM (inactive) | 83.9 µM (inactive) | – | > 100 µM (inactive) | – | > 100 µM (inactive) | > 100 µM (inactive) | 77.1 µM (inactive) | > 100 µM (inactive) | > 100 µM (inactive) | > 100 µM (inactive) | > 100 µM (inactive) | 44.5 µM (inactive) |
| CC1=[N+]([O-])c2ccccc2C(=O)C1=O | 89.5 µM (inactive) | > 100 µM (inactive) | – | > 100 µM (inactive) | 65.8 µM (inactive) | 61 µM (inactive) | > 100 µM (inactive) | 93.8 µM (inactive) | > 100 µM (inactive) | 42.2 µM (inactive) | > 100 µM (inactive) | > 100 µM (inactive) | > 100 µM (inactive) | 40.3 µM (inactive) | 35.5 µM (inactive) | 25.9 µM (inactive) | > 100 µM (inactive) | 81.1 µM (inactive) |
| CN1C(=O)C(C)(C)NS1(=O)=O | > 100 µM (inactive) | > 100 µM (inactive) | – | > 100 µM (inactive) | > 100 µM (inactive) | > 100 µM (inactive) | > 100 µM (inactive) | > 100 µM (inactive) | > 100 µM (inactive) | > 100 µM (inactive) | > 100 µM (inactive) | > 100 µM (inactive) | > 100 µM (inactive) | > 100 µM (inactive) | > 100 µM (inactive) | > 100 µM (inactive) | > 100 µM (inactive) | > 100 µM (inactive) |
| O=C(CC1(O)C(=O)Nc2ccccc21)c1cccc(O)c1 (centres undefined) | > 100 µM (inactive) | > 100 µM (inactive) | – | > 100 µM (inactive) | > 100 µM (inactive) | > 100 µM (inactive) | > 100 µM (inactive) | > 100 µM (inactive) | > 100 µM (inactive) | > 100 µM (inactive) | > 100 µM (inactive) | 48.3 µM (inactive) | > 100 µM (inactive) | > 100 µM (inactive) | > 100 µM (inactive) | – | – | > 100 µM (inactive) |
| C#CC1(O)CCC2C3CCc4cc(Oc5nc(F)nc(-c6c7ccccc7c7sc8ccccc8n67)n5)ccc4C3CC[C@@]21C (some centres undefined) | > 100 µM (inactive) | – | 32.1 µM (inactive) | – | > 100 µM (inactive) | > 100 µM (inactive) | > 100 µM (inactive) | 36.3 µM (inactive) | – | > 100 µM (inactive) | > 100 µM (inactive) | > 100 µM (inactive) | > 100 µM (inactive) | > 100 µM (inactive) | > 100 µM (inactive) | 35.2 µM (inactive) | > 100 µM (inactive) | – |
| NC(=O)COc1c(Br)cc(Br)cc1Br | – | > 100 µM (inactive) | > 100 µM (inactive) | > 100 µM (inactive) | > 100 µM (inactive) | > 100 µM (inactive) | – | > 100 µM (inactive) | > 100 µM (inactive) | > 100 µM (inactive) | > 100 µM (inactive) | > 100 µM (inactive) | > 100 µM (inactive) | – | > 100 µM (inactive) | > 100 µM (inactive) | > 100 µM (inactive) | – |
| CN(C)C(=S)/N=c1\ssc(=S)n1Cc1ccccn1 | 2.7 µM (inactive) | 4.67 µM (inactive) | – | 7.03 µM (inactive) | 4.1 µM (inactive) | 2.93 µM (inactive) | 7.55 µM (inactive) | 6.55 µM (inactive) | 3.89 µM (inactive) | 6 µM (inactive) | 1.94 µM (inactive) | 3.52 µM (inactive) | 8.24 µM (inactive) | 3.19 µM (inactive) | 2.31 µM (inactive) | 10.7 µM (inactive) | 4.92 µM (inactive) | 3.01 µM (inactive) |
| c1cncc(C2N3CCCCC3[C@@H]3c4[nH]c5ccccc5c4CCN23)c1 (some centres undefined) | > 100 µM (inactive) | > 100 µM (inactive) | – | > 100 µM (inactive) | > 100 µM (inactive) | > 100 µM (inactive) | > 100 µM (inactive) | > 100 µM (inactive) | > 100 µM (inactive) | > 100 µM (inactive) | > 100 µM (inactive) | > 100 µM (inactive) | > 100 µM (inactive) | > 100 µM (inactive) | > 100 µM (inactive) | > 100 µM (inactive) | – | 21.1 µM (inactive) |
| COC1=CC(=O)C2[C@H]3Cc4ccccc4[C@H]3C2(C)C1=O (some centres undefined) | > 100 µM (inactive) | > 100 µM (inactive) | 70.3 µM (inactive) | – | > 100 µM (inactive) | > 100 µM (inactive) | > 100 µM (inactive) | > 100 µM (inactive) | > 100 µM (inactive) | > 100 µM (inactive) | > 100 µM (inactive) | > 100 µM (inactive) | > 100 µM (inactive) | – | > 100 µM (inactive) | 55.2 µM (inactive) | > 100 µM (inactive) | > 100 µM (inactive) |
| CCCOc1ccc(/C=C\c2cc(OC)c(OC)c(OC)c2)cc1 | 55.1 µM (inactive) | – | – | 65.3 µM (inactive) | 54 µM (inactive) | 68.2 µM (inactive) | 31.8 µM (inactive) | > 100 µM (inactive) | 87.5 µM (inactive) | > 100 µM (inactive) | – | 13.6 µM (inactive) | 73.3 µM (inactive) | 18.9 µM (inactive) | 14.5 µM (inactive) | > 100 µM (inactive) | – | 40.1 µM (inactive) |

Reference: ChEMBL document CHEMBL1201862, “PubChem BioAssay data set” (2004)
